Measured values as given in patent US12162858B2, “Quinoline derivatives as inhibitors of AXL/MER RTK and CSF1R” (QURIENT CO., LTD., priority 2018, dated 2024).

What was measured:
Format in all cases: cell-based
[1] = target: T1, Axl (Ba/F3 cells) (Homo sapiens, UniProt P30530); test: BaF3 viability assay, Axl-dependent cells; settings: read-out: Cellular Axl activity by Ba/F3 assay (IC50)
T1 sequence (P30530 1-894): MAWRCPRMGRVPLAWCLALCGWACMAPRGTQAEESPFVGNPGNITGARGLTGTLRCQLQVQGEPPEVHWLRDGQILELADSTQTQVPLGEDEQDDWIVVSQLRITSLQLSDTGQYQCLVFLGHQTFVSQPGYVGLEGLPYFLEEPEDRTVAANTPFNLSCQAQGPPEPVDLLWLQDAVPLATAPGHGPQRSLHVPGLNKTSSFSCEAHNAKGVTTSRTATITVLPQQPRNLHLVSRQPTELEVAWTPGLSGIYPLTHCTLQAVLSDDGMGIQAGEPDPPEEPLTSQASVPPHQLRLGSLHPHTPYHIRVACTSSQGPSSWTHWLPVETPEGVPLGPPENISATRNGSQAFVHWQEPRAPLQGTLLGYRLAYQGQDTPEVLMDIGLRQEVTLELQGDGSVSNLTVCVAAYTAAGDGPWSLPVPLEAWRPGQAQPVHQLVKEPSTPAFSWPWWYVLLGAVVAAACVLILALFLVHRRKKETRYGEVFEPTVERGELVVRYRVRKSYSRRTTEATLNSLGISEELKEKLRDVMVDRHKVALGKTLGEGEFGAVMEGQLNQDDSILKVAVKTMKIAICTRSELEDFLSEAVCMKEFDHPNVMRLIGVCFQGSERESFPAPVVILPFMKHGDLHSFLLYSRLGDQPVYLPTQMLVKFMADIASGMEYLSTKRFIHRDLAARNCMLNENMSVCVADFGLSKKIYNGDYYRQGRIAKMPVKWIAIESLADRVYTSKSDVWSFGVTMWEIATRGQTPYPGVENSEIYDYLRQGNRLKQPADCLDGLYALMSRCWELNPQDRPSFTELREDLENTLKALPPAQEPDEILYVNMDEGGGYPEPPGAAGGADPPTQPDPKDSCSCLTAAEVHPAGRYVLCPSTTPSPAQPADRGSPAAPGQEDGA
Source text: (§1) In this system, IL-3-dependent Ba/F3 cells are modified to express an activated recombinant kinase (in the present case Axl, Mer and CSF1R). Following removal of IL-3, the modified cells are dependent on the activity of the recombinant kinase for survival and proliferation. Inhibition of such kinase(s) through test compounds reduces survival and proliferation of the cells.
(§2) Cell lines were maintained in growth media (GM) consisting of RPMI 1640 supplemented with 10% FBS. Cells in logarithmic-phase growth were harvested and 5,000 cells were distributed into each well of a 384-well plate in 50 μl GM. Parental cells (or experimental assays where specified) were further supplemented with 2 ng/ml IL-3 to support cell growth and survival. Fifty nanoliters of the indicated reference standard or experimental compound were added to appropriate wells (in duplicate) and the cells were cultured for 48 h at 37° C./5% CO2. Viability was determined by adding 10 μl Cell Titer Glo and measuring luminescence, which is reported as relative light units (RLU) measured in counts per second. The following calculations and formulas are used for data analysis using GraphPad Prism software: The curve fitting was made using the Dose response curves-Inhibition.

[2] = target: T2, Mer (Ba/F3 cells) (Homo sapiens, UniProt Q12866); test: BaF3 viability assay, Mer-dependent cells; settings: read-out: Cellular Mer activity by Ba/F3 assay (IC50)
T2 sequence (Q12866 1-999): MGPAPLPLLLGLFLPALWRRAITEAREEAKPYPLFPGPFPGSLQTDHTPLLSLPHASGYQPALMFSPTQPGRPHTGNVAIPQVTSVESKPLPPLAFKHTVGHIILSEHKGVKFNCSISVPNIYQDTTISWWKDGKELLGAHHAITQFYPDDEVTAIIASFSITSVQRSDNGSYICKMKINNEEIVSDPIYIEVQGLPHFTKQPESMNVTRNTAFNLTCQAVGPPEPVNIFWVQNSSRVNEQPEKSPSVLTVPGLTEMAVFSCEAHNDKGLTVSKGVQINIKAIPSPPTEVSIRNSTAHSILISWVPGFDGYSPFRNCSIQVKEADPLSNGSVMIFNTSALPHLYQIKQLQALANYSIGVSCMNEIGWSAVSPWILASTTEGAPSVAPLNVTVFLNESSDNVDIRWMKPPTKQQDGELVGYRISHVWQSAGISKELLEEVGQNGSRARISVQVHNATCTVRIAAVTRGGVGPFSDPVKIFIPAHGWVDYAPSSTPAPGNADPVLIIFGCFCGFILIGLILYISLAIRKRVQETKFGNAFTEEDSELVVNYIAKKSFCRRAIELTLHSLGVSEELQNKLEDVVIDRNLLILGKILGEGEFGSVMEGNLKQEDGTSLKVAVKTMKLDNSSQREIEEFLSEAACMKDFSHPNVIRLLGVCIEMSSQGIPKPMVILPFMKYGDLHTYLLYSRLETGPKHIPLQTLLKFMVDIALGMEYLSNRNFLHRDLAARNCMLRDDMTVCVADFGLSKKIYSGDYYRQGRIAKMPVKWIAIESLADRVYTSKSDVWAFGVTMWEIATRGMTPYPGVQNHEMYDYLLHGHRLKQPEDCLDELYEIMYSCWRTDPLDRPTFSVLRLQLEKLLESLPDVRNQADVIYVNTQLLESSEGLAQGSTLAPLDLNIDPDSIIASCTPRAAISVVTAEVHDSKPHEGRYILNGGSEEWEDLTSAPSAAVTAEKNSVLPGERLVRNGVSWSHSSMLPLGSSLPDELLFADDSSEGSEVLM
Source text: as §1, §2

[3] = target: CSF1R (Ba/F3 cells) (Homo sapiens, UniProt P07333); test: BaF3 viability assay, CSF1R-dependent cells; settings: read-out: Cellular CSF1R activity by Ba/F3 assay (IC50)
Chain of CSF1R (Ba/F3 cells) (P07333 whole entry, change not shown): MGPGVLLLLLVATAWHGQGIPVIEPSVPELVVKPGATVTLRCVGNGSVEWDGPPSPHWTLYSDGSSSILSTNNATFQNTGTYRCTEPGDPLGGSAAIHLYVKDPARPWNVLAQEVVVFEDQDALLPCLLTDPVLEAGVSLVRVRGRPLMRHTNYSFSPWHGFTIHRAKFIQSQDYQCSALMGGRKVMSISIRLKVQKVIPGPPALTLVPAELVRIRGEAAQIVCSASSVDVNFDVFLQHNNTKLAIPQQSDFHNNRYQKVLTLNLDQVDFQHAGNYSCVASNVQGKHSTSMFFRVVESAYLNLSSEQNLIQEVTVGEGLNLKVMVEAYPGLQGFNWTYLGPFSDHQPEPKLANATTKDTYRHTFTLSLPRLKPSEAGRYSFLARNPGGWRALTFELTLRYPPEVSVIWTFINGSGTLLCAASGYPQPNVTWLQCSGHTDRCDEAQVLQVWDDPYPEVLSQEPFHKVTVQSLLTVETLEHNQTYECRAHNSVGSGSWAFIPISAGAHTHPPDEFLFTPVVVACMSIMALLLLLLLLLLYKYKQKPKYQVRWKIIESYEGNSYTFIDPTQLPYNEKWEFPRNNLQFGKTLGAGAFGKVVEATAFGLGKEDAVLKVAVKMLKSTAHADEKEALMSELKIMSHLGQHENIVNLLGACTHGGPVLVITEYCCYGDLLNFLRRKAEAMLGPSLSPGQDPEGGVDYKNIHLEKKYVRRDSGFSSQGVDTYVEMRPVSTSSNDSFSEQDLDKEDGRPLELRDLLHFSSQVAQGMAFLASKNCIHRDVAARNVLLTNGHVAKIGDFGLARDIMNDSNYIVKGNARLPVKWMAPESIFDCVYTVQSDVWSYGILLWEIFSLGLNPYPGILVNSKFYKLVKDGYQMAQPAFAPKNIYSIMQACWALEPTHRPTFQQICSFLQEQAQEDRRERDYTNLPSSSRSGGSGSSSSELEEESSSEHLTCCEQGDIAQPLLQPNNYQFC
Source text: as §1, §2

Measured: GI50

COc1cc2nccc(Oc3ccc(NC(=O)c4nn(C5CC5)cc4OCC(F)(F)F)nc3)c2cc1OC [Compound 5]
< 1000 nM: [1] | [2] | [3]
